Experimental data from PubChem BioAssay (NCI).
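Values below derive from 48-hour exposures of cells grown in 96-well plates, with endpoints linearly interpolated between the two concentrations bracketing the appropriate inhibition level. The concentration for 50% growth inhibition is given as GI50. Definition used: TGI = concentration required for complete inhibition of growth.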

Tests used:
Assay in all cases: growth of human tumour cells (NCI), 48 h
A549 NSCLC = tested on: A549 NSCLC
OVCAR-5 ovarian = tested on: OVCAR-5 ovarian
SF-295 CNS = tested on: SF-295 CNS
SN12C renal = tested on: SN12C renal
SK-OV-3 ovarian = tested on: SK-OV-3 ovarian
IGROV1 ovarian = tested on: IGROV1 ovarian
KM12 colon = tested on: KM12 colon
HCC-2998 colon = tested on: HCC-2998 colon
CCRF-CEM leukemia = tested on: CCRF-CEM leukemia
MOLT-4 leukemia = tested on: MOLT-4 leukemia

SMILES	TGI (A549 NSCLC) [µM]	TGI (OVCAR-5 ovarian) [µM]	TGI (SF-295 CNS) [µM]	TGI (SN12C renal) [µM]	TGI (SK-OV-3 ovarian) [µM]	TGI (IGROV1 ovarian) [µM]	TGI (KM12 colon) [µM]	TGI (HCC-2998 colon) [µM]	GI50 (OVCAR-5 ovarian) [µM]	GI50 (KM12 colon) [µM]	GI50 (HCC-2998 colon) [µM]	TGI (CCRF-CEM leukemia) [µM]	TGI (MOLT-4 leukemia) [µM]	GI50 (A549 NSCLC) [µM]	GI50 (SN12C renal) [µM]	GI50 (SK-OV-3 ovarian) [µM]	GI50 (IGROV1 ovarian) [µM]	GI50 (CCRF-CEM leukemia) [µM]	GI50 (MOLT-4 leukemia) [µM]	GI50 (SF-295 CNS) [µM]
CCOC(=O)NC(=O)c1cn(CCN2CCN(C(=O)NCCCCCCNC(=O)N3CCN(CCn4cc(C(=O)NC(=O)OCC)c(=O)n(CCN(CC)CC)c4=O)CC3)CC2)c(=O)n(CCC(CC)CC)c1=O	> 100	> 100	> 100	> 100	> 100	> 100	> 100	> 100	–	–	–	–	–	–	–	–	–	–	–	–
COc1cc([N+](=O)[O-])c(OC)cc1-c1nc2sc(Cl)cn2c1/C=N/NC(=N)N/N=C/c1c(-c2cc(OC)c([N+](=O)[O-])cc2OC)nc2sc(Cl)cn12	–	3.16	–	–	–	–	2.95	3.15	1.71	1.54	1.69	–	–	–	–	–	–	–	–	–
O=C1C(=O)c2ccccc2C(O)=C1CCCCCCCCC1CCCCC1	23.5	32.2	–	22.3	54.4	19.2	23.1	24.4	–	–	–	13.6	12.3	–	–	–	–	–	–	–
CN1CCn2c(c(Sc3ccc(C(=O)NO)cc3)c3ccccc32)C1=O	13	5.67	–	5.58	4.8	3.85	3.92	3.76	2	1.85	1.94	> 27.8	> 33.8	3.45	2.13	2.11	1.82	1.23	2.87	–
COC1=CC(=O)[C@]2(C)[C@H](C1=O)C(C)[C@H]2c1ccccc1 (stereo partly specified)	> 100	> 100	> 100	–	> 100	> 100	> 100	> 100	–	–	–	> 100	> 100	–	–	–	–	–	–	–
COC(=O)c1cc2oc(/C=C3\SC(=S)N(NC(C)=O)C3=O)cc2n1Cc1ccccc1	17.9	19.1	15.6	20.8	15.5	> 50	12.8	–	7.36	2.95	–	–	> 50	5.2	11.3	6.33	7.31	–	1.97	2.11
O=C1c2c(nc3ccccc3c2-c2ccccc2)CN1Nc1ccccc1	> 100	> 100	–	> 100	> 100	> 100	> 100	> 100	–	–	–	> 100	> 100	–	–	–	–	–	–	–
CSC1C(=O)c2ccccc2/C(=N/Nc2nc3ccccc3s2)C1C (stereo unspecified)	44.4	29.6	> 50	14.2	> 50	4.22	> 50	–	14.5	18.7	–	–	–	16	7.26	35.2	0.648	–	–	19.7
O=C(CN1C(=O)c2ccccc2C1=O)C(O)CN1C(=O)c2ccccc2C1=O (stereo unspecified)	> 100	> 100	99.8	> 100	> 100	> 100	> 100	> 100	–	–	–	–	> 100	–	–	–	–	–	–	–
N#C[S-].[Au+].c1ccc(CN2[CH-]N(Cc3ccccc3)C(c3ccccc3)=C2c2ccccc2)cc1	3.24	3.28	–	–	3.63	–	2.79	–	1.21	0.527	–	–	–	0.593	–	0.391	–	–	–	–
N=C(N)c1ccc(-c2ccc(-c3cccs3)s2)nc1	1.28	5.68	–	5.38	5.88	3.56	3.6	2.08	1.26	1.88	0.771	4.19	4.13	0.023	1.68	1.56	1.76	1.78	1.96	–
Cc1ccc(C2=C(c3ccccc3)C(Br)(c3ccccc3)C(c3ccccc3)=C2c2ccc(C)cc2)cc1	> 100	> 100	> 100	> 100	> 100	> 100	> 100	–	–	–	–	> 100	> 100	–	–	–	–	–	–	–
COc1cccc2c(=O)c3c(sc12)c(NCCN(C)C)nc1ccccc13	2.8	3.3	3.42	2.58	–	2.7	3.1	3.02	1.65	1.59	1.47	2.97	1.66	1.22	1.15	–	1.19	1.34	0.398	1.65
